Read-outs that look alike come from different tables or passages of the source. Ends that are not written are not given here.
What was measured:
Elastin = Elastin in dermis by Elisa, single administration test; type: in vivo, rat
Method: (§1) Since the proteins of extracellular matrix collagen and elastin are involved in wound repair, skin aging and photo-aging, the effect of topical application of NGF1-14 on the levels of these two proteins was also analyzed.
(§2) Pro-Collagen I and Elastin were measured by using commercial Elisa kits, first in a single administration test, followed by a two weeks administration test.
(§3) A similar trend was observed by analyzing the two proteins: an increase of both pro-Collagen I (A) and Elastin (B) was detected in dermis of NGF1-14 treated rats at 0.1% dose, after sonication. The effect was less appreciable without applying the ultrasounds.
(§4) The protective action of NGF1-14 at 0.1% dose (P 0.1%) was evaluated on adult skin exposed to sub-erythematous levels of UV-B (MED=60 mJ/cm^2 twice a day) first in a single administration test (one day) then for three weeks before the treatment. This experimental procedure is also refereed as Photo-AGing model (PAG) since it induces structural and molecular changes occurring in aging.

TrkA = TrkA phosphorylation by Western Blot; type: in vivo, rat; details: dermis samples, with or without LFS, compared to vehicle controls; FIG. 4
pro-Collagen I = assay: Pro-Collagen I in dermis by Elisa, single administration test; type: in vivo, rat
Method: as §1, §2, §3, §4

[1] = pKa by potentiometric pH-metric titration (Sirius T3); type: physicochemical; details: 0.15 M KCl solution (ISA water), 25±1° C.
Method: Experimental pKa as well as partition and distribution coefficients (log P and log D) were determined using an automated potentiometric titrator Sirius T3 (Sirius Analytical Instruments Ltd., East Sussex, UK) equipped with an Ag/AgCl double junction reference pH electrode, a Sirius D-PAS spectrometer and a turbidity sensing device. The pH electrode was calibrated titrimetrically in the pH range 1.8-12.2. An overhead stirrer was used and a temperature probe monitored the temperature during the course of the titration. The titration experiments were conducted in 0.15 M KCl solution (ISA water) under an argon atmosphere at a temperature of 25±1° C. All tests were performed using standardized 0.5 M KOH and 0.5 M HCl as titration reagents, for the partition coefficient tests a saturated Octanol in ISA water (5% of ISA water) was used as partition solvent. The pKa is determined by potentiometric method by pH-metric titration. The powder (around 0.5 mg) was dissolved in 1.5 ml of ISA water and the titration was performed in triplicate in the pH range 2.0-12.0. Log P is performed in triplicate by dissolving the powder (around 0.7 mg) in 1 ml of ISA water followed by pH metric titration in three different percentage of Octanol (generally 50%, 60%, 70%). The predicted pKa and the calculated log P for the instrumental model was performed using ACD/Percepta.

[2] = target: T1, NGF receptors, TrkA and p75 (Rattus norvegicus, UniProt P35739); assay: PC12-Luci c-fos promoter luciferase reporter assay; type: cell-based; details: for Ec50 (luminescence): PC12-Luci cells, 4 h at 37° C.
T1 construct: PC12-Luci cells, which endogenously express the NGF receptors, TrkA and p75; endogenous in cells; host or cells: PC12-Luci (rat pheochromocytoma clone B9 with the human c-fos promoter-luciferase reporter)
T1 sequence (P35739 33-799): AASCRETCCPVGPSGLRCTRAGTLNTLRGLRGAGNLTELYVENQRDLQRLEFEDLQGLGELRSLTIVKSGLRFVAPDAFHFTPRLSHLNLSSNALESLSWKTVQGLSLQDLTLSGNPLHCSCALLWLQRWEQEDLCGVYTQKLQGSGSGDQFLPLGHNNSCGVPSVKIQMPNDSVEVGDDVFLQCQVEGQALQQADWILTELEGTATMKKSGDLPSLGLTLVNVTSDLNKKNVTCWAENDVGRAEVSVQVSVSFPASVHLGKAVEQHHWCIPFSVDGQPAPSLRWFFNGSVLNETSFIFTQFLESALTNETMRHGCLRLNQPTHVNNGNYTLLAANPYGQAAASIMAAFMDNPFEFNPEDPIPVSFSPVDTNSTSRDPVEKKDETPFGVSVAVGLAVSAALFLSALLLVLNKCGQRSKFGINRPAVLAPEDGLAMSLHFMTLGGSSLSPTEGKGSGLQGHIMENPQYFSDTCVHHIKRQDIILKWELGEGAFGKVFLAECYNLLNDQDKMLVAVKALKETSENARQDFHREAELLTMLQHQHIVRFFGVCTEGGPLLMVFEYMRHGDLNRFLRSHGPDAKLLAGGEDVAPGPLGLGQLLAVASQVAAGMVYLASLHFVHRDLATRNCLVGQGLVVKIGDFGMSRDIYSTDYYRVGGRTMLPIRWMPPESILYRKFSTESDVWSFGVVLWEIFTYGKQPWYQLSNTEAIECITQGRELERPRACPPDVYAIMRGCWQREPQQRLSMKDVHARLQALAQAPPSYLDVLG
Source text: NGF treatment of rat pheochromocytoma cell line (PC12) results in c-fos mRNA and protein expression (J. Milbrandt, “Nerve growth factor rapidly induces c-fos mRNA in PC12 rat pheochromocytoma cells”, Proc Natl Acad Sci USA. 1986 July; 83(13):4789-93).
Starting from the work of Milbrandt, the Applicant monitored the activation of NFG receptor by using a clone (B9) stably transfected with the human c-fos promoter driving a luciferase reporter gene (PC12-Luci). This clone was used to set up a functional and quantitative assay for the characterization of the activity of NGF1-14.
The experiments were performed in PC12-Luci cells, which endogenously express the NGF receptors, TrkA and p75. Cells were maintained in the following complete culture medium comprising: • DMEM-F12 mixture (DMEM-F12 Glutamax; Life Technologies, GIBCO 10565-018) • 5% fetal bovine serum (FBS, Sigma Aldrich, F7524) • 10% horse serum (HS, Sigma Aldrich, H1138) • 1% penicillin-streptomycin (Life Technologies, GIBCO 15140-122)
For passaging, cells were gently washed with PBS and then incubated with trypsin for 5 min at room temperature or 37° C. Media was added and cells were resuspended (6-8 times).
Experiments were performed in sestuplicate, in black 96 well previously coated with 50 μg/ml collagen type I.
PC-12-Luci cells were seeded at 25000/well in 100 μl complete growth medium. 24h later, cell medium was carefully removed. Cells were then incubated with five concentrations (range 30 ng/ml-300 μg/ml, 1:10 serial dilutions) of NGF1-14 in standard Tyrode buffer with 0.1% BSA (50 μl/well) for 4 h at 37° C. The reference Negermin™ compound (by MimeTech Srl) has been added at 30 μg/ml, as reference. The stock solution of NGF1-14 was resuspended in sterile water, aliquoted and stored at −20° C. The stock solution of Negermin™ compound was resuspended in formulation buffer and stored at −20° C.
After the incubation, the basal level of luminescence was monitored for 30 seconds, by using EnSpire multimode plate reader (PerkinElmer). Then, a Triton-Luciferin mix was added to cells (50 μl/well), in a 1:1 ratio, leading to cell lysis. The obtained luminescence signal was monitored for other 60 seconds. […]
All luminescence values were normalized versus the basal level of luminescence. The response value was calculated as the mean of luminescence of the kinetic recorded.
Data were further analyzed (e.g. calculation of dose-response curves and EC50 values) and graphs plotted using GraphPad Prism (GraphPad Software, Inc.). […]

normal human melanocytes = assay: Tanning action: melanin content by ELISA; type: cell-based; details: cultured for a week, various concentrations
Method: The effect of topical application of NGF1-14 on the activation of melanocytes to produce melanin has been assessed.
According to already set up protocols, primary cell cultures of normal human melanocytes were seeded in Petri dishes and cultured for a week, with and without the presence of NGF 1-14 at various concentrations. The melanin content was measured by enzyme immunoassay ELISA.

[3] = Skin distribution of NGF1-14 gel preparation, HPLC-UV of epidermis and dermis extracts; type: in vivo, rat; details: 0.1% gel, following LFS, compared to vehicle
Method: Distribution experiments were carried out to evaluate the ability of NGF1-14 gel preparation to penetrate the corneal stratus and reach the dermis, also by using sonophoresis-like strategies to facilitate skin penetration.
Tape-striping and ultrasounds were applied on the shaved dorsal area of female adult Sprague Dawley (SD) rats (10-12 months).
Low-Frequency Sonophoresis (LFS) was applied using a Sonics Ultrasonic Processor Model VCX 400 operating at a frequency of 20 KHz (tip displacement of about 2 cm, continuous mode) for 6 or 10 minutes, according to common clinical practices, since a prolonged use of sonophoresis is known to increase skin permeation but also to a considerable thermal damage, which is not appropriate for the use (Ref. International Journal of Health Sciences & Research 477 Vol. 5; Issue: 5; May 2015: A Review on Ultrasound Parameters and Methods of Application in Transdermal Drug Delivery).
Vehicle control and NGF1-14 gel preparation were administered on the skin portion pre-treated with LFS (S) or on shaved/tape striping skin (NS).
Treatment was repeated after two hours, and rats were sacrificed to dissect skin samples 2 hours after the second gel/NGF mimetic application. […]
Quantification of NGF 1-14 was determined by HPLC-UV, on a reverse phase C4 column, eluting with phosphate buffer (pH 7.4) and acetonitrile. […]

[4] = without applying the ultrasounds

Substance | Elastin in dermis (Elastin; 0.1% dose, after sonication, FIG. 5B) | Elastin in dermis (Elastin; [4]) | phosphorylation levels of TrkA (TrkA) | pro-Collagen I in dermis (pro-Collagen I; 0.1% dose, after sonication, FIG. 5A) | Collagen I in dermis (pro-Collagen I; [4]) | pKa ([1]; read-out: Acid pKa) | pKa ([1]; read-out: Base pKa) | level of basal luminescence ([2]; 30 ng/ml-300 μg/ml, 4 h) | in vitro potency compared with reference standard ([2]; Negermin™ compound added at 30 μg/ml) | Ec50 (luminescence) [2] [ng/mL] | melanin content (normal human melanocytes) | NGF1-14 level in epidermis ([3]; FIG. 3A) | NGF1-14 level in dermis ([3]; FIG. 3B)
SSSHPIFHRGEFSV [NGF1-14, SSSHPIFHRGEFSV] | increase | slight increase | increased phosphorylation levels of TrkA | increase | comparable to the positive control value | 4.42 ± 0.05 | 7.41 ± 0.07 | increases the level of basal luminescence in a dose-dependent manner | higher than reference standard Negermin™ compound, but lower than rhNGF | 290.95 | An increase was observed | significant increase | significant increase
rhNGF: human recombinant NGF |  |  |  |  |  |  |  |  |  | 1.4 |  |  | 

From patent publication US20210395305A1, “PEPTIDE FOR COSMETIC APPLICATION” (COLOSSEUM COMBINATORIAL CHEMISTRY CENTRE FOR TECHNOLOGY …, priority 2018, published 2021)
